One data set addresses PRMT1 (Homo sapiens, UniProt Q99873). The experiment in a line: Radioactive PRMT1 methylation inhibition assay ([3H]-SAM, biotinylated histone H4 peptide). It is filed as biochemical. Conditions: for inhibition at 10 µM: compound at 10 μM, read-out: % Inhibition of PRMT1 (at 10 μM); for IC50: radioactive methylation assay, read-out: IC50 (μM) against PRMT1. How it is done:
A series of 2,5-substituted furan and 2,4-substituted thiazole derivatives were synthesized and screened for their inhibitory effects on PRMT1 by using the radioactive PRMT1 methylation inhibition assay, which measured the amount of methyl groups that transferred from [^3H]-SAM to a biotinylated histone H4 peptide [ac-[…](Biotin)] (Tables 1–3).
The enzyme inhibitory activities and selectivity were measured by the radioisotope assay and AlphaLISA assay in ShangHai Chempartner Co., Ltd., according to the standard protocol. […] After 250 nL of compound solutions were added to the assay plate, 15 μl of PRMT1 enzyme solution or ×1 assay buffer for negative control was transferred to each well of prepared compound stock plates and the whole system (the final concentration of PRMT1 was 0.5 nM or 2 nM in the system) was incubated for 15 min at room temperature. […] Afterward, the reaction was stopped with the addition of 5 μl cold SAM solution to each well. Then, 25 μl volume per well was transferred to a Flashplate from the assay plate and incubated for a minimum of 1 h at room temperature. Finally, the Flashplate was washed with dH2O and 0.1% Tween-20 three times and then the reading plate in Microbeta using the program ^3H-Flashplate. The data were analyzed in GraphPad Prism 5 to obtain IC50 values.

Where a name gives a salt, the structure may show the parent alone.

PRMT1, sequence (Q99873 whole entry): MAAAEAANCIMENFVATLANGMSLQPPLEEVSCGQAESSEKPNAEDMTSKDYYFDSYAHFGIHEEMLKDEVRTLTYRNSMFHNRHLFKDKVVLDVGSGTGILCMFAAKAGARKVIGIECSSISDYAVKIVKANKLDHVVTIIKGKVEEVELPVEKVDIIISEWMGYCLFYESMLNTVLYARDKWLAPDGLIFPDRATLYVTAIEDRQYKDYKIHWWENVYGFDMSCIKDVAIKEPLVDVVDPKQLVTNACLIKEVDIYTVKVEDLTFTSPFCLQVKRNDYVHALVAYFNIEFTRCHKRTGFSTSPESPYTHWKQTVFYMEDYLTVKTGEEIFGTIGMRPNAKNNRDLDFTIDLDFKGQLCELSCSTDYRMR

Usually inhibition stands for the share of the control response that was lost under treatment. For the molecule `CNCCN(C)Cc1ccc(-c2cccc(C(N)=NO)c2)o1` [Compound 1g, N′-[5-(3-N-Hydroxyamidino-phen-1-yl)-furan-2-yl-methyl]-N,N′-dimethylethylenediamine Hydrochloride], on PRMT1, the inhibition at 10 µM came out at 39.98 ± 0.19%. As usually defined, the melting point is the temperature, or range, at which the solid turns liquid. Take `CNCCN(C)Cc1ccc(-c2ccc(C(N)=NO)cc2)o1` (as salt: hydrochloride) [Compound 1e, N′-[5-(4-N-Hydroxyamidino-phen-1-yl)-furan-2-yl-meth-yl]-N,N′-dimethylethylenediamine Hydrochloride]: the melting point lay within 231.2 to 232.8 °C. By IC50 is commonly meant the point on the concentration scale where inhibition reaches its midpoint. As for `CNCCN(C)Cc1ccc(-c2ccc(Cl)c(C(=N)N)c2)o1` [Compound 1k, N′-[5-(3-Amidino-4-chloro-phen-1-yl)-furan-2-yl-methyl]-N,N′-dimethylethylenediamine Hydrochloride], at PRMT1, the inhibition at 10 µM is 76.5 ± 0.01% and the IC50 was 2.5 ± 0.91 µM. On to `CN(CCN)Cc1ccc(-c2ccc(C(=N)N)nc2)o1.Cl` [Compound 1o, N′-[5-(2-Amidino-5-pyridyl)furan-2-yl-methyl]-N′-methylethylenediamine Hydrochloride], for which the melting point lay in the range of 223.4 to 224.8 °C. Besides, at PRMT1, the inhibition at 10 µM stood at 89.02 ± 0.05% and the IC50 stood at 2.41 ± 0.18 µM. Regarding `CNCCN(C)Cc1ccc(-c2ccc(C(N)=NO)c(F)c2)o1` [Compound 1f, N′-[5-(3-Fluoro-4-N-hydroxyamidino-phen-1-yl)-furan-2-yl-methyl]-N,N′-dimethylethylenediamine Hydrochloride], on PRMT1, the inhibition at 10 µM came to 35.97 ± 0.2%. `CNCCN(C)Cc1ccc(-c2ccc(N)cc2)o1.Cl` [Compound 1c, N′-[5-(4-Aminophenyl)-furan-2-yl-methyl]-N,N′-dimeth-ylethylenediamine Hydrochloride] returned a melting point of 60.2 to 61.1 °C. For the same molecule, at PRMT1, the inhibition at 10 µM turned out to be 50 ± 0.18% and the IC50 was found to be 21.4 ± 12.8 µM. `CNCCN(C)Cc1ccc(-c2cccc(N)c2)o1.Cl` [Compound 1d, N′-[5-(3-Aminophenyl)-furan-2-yl-methyl]-N,N′-dimethylethylenediamine Hydrochloride] came in with a melting point of 64.2 to 65.2 °C. In addition, the inhibition at 10 µM at PRMT1 was 35.99 ± 0.09%.

`CNCCN(C)Cc1ccc(-c2ccc(C(N)=O)cc2)o1` [Compound 1a, N′-[5-(4-Formamide-phen-1-yl)-furan-2-yl-methyl]-N,N′-dimethylethylenediamine Hydrochloride]: the inhibition at 10 µM at PRMT1 is 10.6 ± 2.24%. `CNCCN(C)Cc1ccc(-c2ccc(C(=N)N)c(F)c2)o1` (as salt: hydrochloride) [Compound 1i, N′-[5-(3-Fluoro-4-amidino-phen-1-yl)-furan-2-yl-methyl]-N,N′-dimethylethylenediamine Hydrochloride] showed a melting point of 156.5 to 159.2 °C. For `CNCCN(C)Cc1ccc(-c2ccc(C(=O)NN)cc2)o1` [Compound 1b, N′-[5-(4-Formylhydrazide-phen-1-yl)-furan-2-yl-methyl]-N,N′-dimethylethylenediamine Hydrochloride], the inhibition at 10 µM on PRMT1 stood at 48 ± 0.02%.

Regarding `CNCCN(C)Cc1ccc(-c2ccc(C(=N)N)c(F)c2)o1` [Compound 1i, N′-[5-(3-Fluoro-4-amidino-phen-1-yl)-furan-2-yl-methyl]-N,N′-dimethylethylenediamine Hydrochloride], on PRMT1, the inhibition at 10 µM was 68 ± 0.02% and the IC50 is 4.42 ± 0.63 µM.

In the case of `CNCCN(C)Cc1ccc(-c2ccc(Cl)c(C(=N)N)c2)o1` (as salt: hydrochloride) [Compound 1k, N′-[5-(3-Amidino-4-chloro-phen-1-yl)-furan-2-yl-methyl]-N,N′-dimethylethylenediamine Hydrochloride], the melting point lay within 223 to 225 °C. Regarding `CNCCN(C)Cc1ccc(-c2ccc(C(N)=NO)cc2)o1` [Compound 1e, N′-[5-(4-N-Hydroxyamidino-phen-1-yl)-furan-2-yl-meth-yl]-N,N′-dimethylethylenediamine Hydrochloride], the inhibition at 10 µM on PRMT1 is 32%. With `CNCCN(C)Cc1ccc(-c2ccc(C(N)=O)cc2)o1` (as salt: hydrochloride) [Compound 1a, N′-[5-(4-Formamide-phen-1-yl)-furan-2-yl-methyl]-N,N′-dimethylethylenediamine Hydrochloride], the melting point fell in the range of 212.2 to 214.6 °C.

In the case of `CNCCN(C)Cc1ccc(-c2ccc(C(N)=NO)c(F)c2)o1` (as salt: hydrochloride) [Compound 1f, N′-[5-(3-Fluoro-4-N-hydroxyamidino-phen-1-yl)-furan-2-yl-methyl]-N,N′-dimethylethylenediamine Hydrochloride], the melting point is 216.8 to 218.6 °C. The molecule `Cl.N=C(N)c1ccc(-c2ccc(CN3CCNCC3)o2)cn1` [Compound 1n, N′-[5-(2-Amidino-5-pyridyl)furan-2-yl-methyl]-piperazine Hydrochloride] had a melting point of 197.7 to 199.3 °C. In addition, at PRMT1, the inhibition at 10 µM came out at 73.51 ± 0.06% and the IC50 was 4.68 ± 0.26 µM. As for `CNCCN(C)Cc1ccc(-c2cccc(C(N)=NO)c2)o1` (as salt: hydrochloride) [Compound 1g, N′-[5-(3-N-Hydroxyamidino-phen-1-yl)-furan-2-yl-methyl]-N,N′-dimethylethylenediamine Hydrochloride], the melting point was 60.8 to 63.2 °C.

For `N=C(N)c1ccc(-c2ccc(-c3ccc(C(=N)N)cc3)o2)cc1` [DB75, furamidine, reference compound], on PRMT1, the inhibition at 10 µM stood at 98.13 ± 0.27% and the IC50 is 0.31 ± 0.04 µM. Turning to `CNCCN(C)Cc1ccc(-c2ccc(C(=N)N)nc2)o1.Cl` [Compound 1l, N′-[5-(2-Amidino-5-pyridyl)furan-2-yl-methyl]-N,N′-dimethylethylenediamine Hydrochloride], the melting point lay in the range of 75.8 to 78.2 °C. On PRMT1, the inhibition at 10 µM turned out to be 92.12 ± 0.28% and the IC50 is 1.29 ± 0.12 µM. In addition, the “PRMT1 IC50 compared with DB75” value on PRMT1 (fold weaker than DB75) is recorded as “four times weaker than DB75”. At PRMT1 (fold weaker than SAH), the “PRMT1 IC50 compared with SAH” value is given as “about two times weaker than SAH”. For `CNCCN(Cc1ccc(-c2ccc(C(=N)N)nc2)o1)C1CC1.Cl` [Compound 1m, N-Methyl-N′-[5-(2-amidino-5-pyridyl)furan-2-yl-methyl]-N′-cyclopropylethylenediamine Hydrochloride], the melting point lay within 95.9 to 98.3 °C. On PRMT1, the inhibition at 10 µM turned out to be 48 ± 0.02% and the IC50 was determined as 10.8 ± 1.3 µM.

`CNCCN(C)Cc1ccc(-c2ccc(C(=O)NN)cc2)o1` (as salt: hydrochloride) [Compound 1b, N′-[5-(4-Formylhydrazide-phen-1-yl)-furan-2-yl-methyl]-N,N′-dimethylethylenediamine Hydrochloride] returned a melting point of 246.2 to 246.9 °C.

These data come from article PMC9214036, “Design and Synthesis of Novel PRMT1 Inhibitors and Investigation of Their Effects on the Migration of Cancer Cell” (Frontiers in Chemistry, 2022).
